Measurements as given in US8603437B2, “Methods for tumor diagnosis and therapy” (President and Fellows of Harvard College, priority 2000, dated 2013).

How the values were obtained:
[1] = test system: alkaline phosphatase (ALP)
Protocol: The animals were killed 1 hour later and the radioactivity in the forelimbs was measured.

[2] = Retention of radioactivity in forelimb after s.c. injection, and 24 hour biodistribution; format: in vivo, mice
Protocol: […] […] The animals were killed after 1 hour, 24 hours, and 48 hours, the radioactivity associated with the forelimbs was measured, and the percentage of radioactivity remaining was calculated (at the 24 hour time point, the biodistribution of radioactivity in various tissues and organs was also determined).

[3] = Biodistribution in normal mice after i.v. injection; format: in vivo; settings: for affinity / avidity for normal tissues: 1 hour and 24 hours; for injected dose remaining in the body by 24 hours: ~5 μCi/100 μl
Protocol: Mice (n=30) were injected i.v. with the radiopharmaceutical (˜5 μCi/100 μl), the animals were killed at 1 hour (n=15) and 24 hours (n=15), and the radioactivity associated with blood, tissues, and organs was determined.
The biodistribution of ^125I-labeled Compound B was also examined in various tissues in normal mice. […] However, by 24 hours (FIG. 5), all tissues and organs (with the exception of minimal activity in the thyroid) were virtually void of radioactivity (<4% of the injected dose remained in the body by 24 hours).

[4] = Blood clearance after i.v. injection in mice; settings: bled over 1 hour, blood radioactivity
[5] = test system: alkaline phosphatase (ALP); settings: ~10 μCi/100 μl 0.1 M Tris pH 7.2, 5 units ALP; only with active enzyme, not heat-inactivated ALP
[6] = Chemical nature of radioactivity in blood (stability), TLC and autoradiography of blood samples; format: in vivo, mice; settings: blood samples from first 40 min, ethanol supernatant, TLC; single spot with same Rf as 127I-labeled Compound A
Description: The plates were run in acetonitrile-water (1.5:2) and autoradiographed.

[7] = mouse, in vivo, iv
Solubility observations = format: physicochemical

solubility in DMSO (Solubility observations; 100 μl DMSO)	behaviour on adding water to the DMSO solution (Solubility observations; 100 μl water added to 100 μl DMSO)	localization of escaped radioactivity in normal tissues ([2]; biodistribution 24 hours after s.c. injection)	change in forelimb radioactivity between 24 hours and 48 hours ([2]; s.c. forelimb)	injected activity remaining at the injection site at 24 hours ([2]; s.c. right forelimb, 5 μl DMSO solution followed by 5 μl saline) [%]	radioactivity in all tissues examined at 1 hour ([3]; 1 hour) [% ID/g]	Structure (SMILES)	radioactive content within forelimbs pre-injected with ALP ([1]; ALP 50-400 units/10 μl s.c., 20 μCi i.v. five minutes later, killed 1 hour later)	uptake in forelimbs pre-injected with heat-inactivated ALP ([1]; heat-inactivated ALP s.c., i.v. prodrug, 1 hour)	fraction seeped out of the s.c. pocket by 24 hours ([2]; s.c. left forelimb, 5 μCi/5 μl saline followed by 5 μl DMSO)	dehalogenation (thyroid activity) [3]	affinity / avidity for normal tissues [3]	injected dose remaining in the body by 24 hours [3]	T1/2β [4] [min]	conversion to 125I-labeled Compound B [5]	stability in blood: chemical nature of radioactivity [6]	blood clearance of radioactivity [7]
						N.O=c1[nH]c(-c2ccccc2OP(=O)(O)O)nc2ccc(I)cc12 [^125-I labeled Compound A, Ammonium 2-(2′-Phosphoryloxyphenyl)-6-iodo-4-(3H)-quinazolinone]	increased with enzyme dose and plateaued at the highest concentrations	no increase in uptake	greater than 98%	minimal dehalogenation	low affinity to normal tissues	< 20 % of the injected dose	51.1 ± 6.8	complete conversion	no evidence of free iodine	rapid biphasic blood clearance
completely soluble	visible precipitate forms immediately	does not localize in any normal tissues	no change	71±5	< 15	O=c1[nH]c(-c2ccccc2O)nc2ccc(I)cc12 [^125-I labeled Compound B, 2-(2′-Hydroxyphenyl)-6-iodo-4-(3H)-quinazolinone]					no avidity for any tissue	< 4 % of the injected dose				
